Experimental data from PMC3598812, “Evaluation of Anti-Hyperalgesic and Analgesic Effects of Two Benzodiazepines in Human Experimental Pain: A Randomized Placebo-Controlled Study” (PLoS ONE, 2013).
Entries after “also recorded” stand apart in the source; their conditions may differ.

Legend:
[1] = system: healthy male volunteers; experiment: Area of dynamic mechanical hyperalgesia after intradermal capsaicin (cotton wool stroking); assay type: in vivo, human; settings: single oral dose (clobazam 20 mg, clonazepam 1 mg, tolterodine 1 mg), mean (SD)
Experimental: The area of dynamic mechanical hyperalgesia was determined by gently stroking a hand-held cotton wool tip on a 1 cm strip of the skin, at a rate of approximately 1 cm/s. Subjects were asked to report when the sensation changed from a non-painful to a painful sensation. The borders of dynamic hyperalgesia were delineated similarly to the determination of static hyperalgesia.

[2] = system: healthy male volunteers; experiment: Pain rating (VAS) after graded von Frey hair stimulation in the capsaicin hyperalgesic area; assay type: in vivo, human; settings: VAS 0-10, single oral dose (clobazam 20 mg, clonazepam 1 mg, tolterodine 1 mg), mean (SD)
Experimental: Additionally, mechanical pain sensitivity was assessed using a set of seven weighted pinprick stimuli to obtain a stimulus-response function. The test was applied 1 cm inside the outer border of the pinprick hyperalgesic area, using a set of 7 graded von Frey hair mechanical stimulators with fixed stimulus intensities (custom-made at Aalborg University, Denmark). The flat contact area of the stimulators has a 0.2 mm diameter, and the 7 stimulators exert forces of 8, 16, 32, 64, 128, 256 and 512 mN. The order of stimulation was defined randomly by computer. The stimulators were applied at a rate of 2 s on/2 s off. Subjects were asked to give a pain rating for each stimulus on a 10 cm VAS. Two assessments for each stimulation were made and the mean of these 2 measurements was used for the data analysis.

[3] = system: healthy male volunteers; experiment: Cutaneous single electrical stimulation pain threshold; assay type: in vivo, human; settings: mean (SD)
Experimental: (§1) Electrical stimulation was performed through electrodes placed distal to the lateral malleolus. A 25 ms, train-of-five, 1 ms, square-wave impulse (perceived as one stimulus), was delivered by a computer-controlled constant current stimulator (Digitimer DS7A, Neurospec, Letchworth Garden City, UK). The current intensity was increased from 1 mA in steps of 0.5 mA until a pain sensation was evoked.
(§2) Three assessments were made and the mean of these 3 measurements was used for the data analysis.

[4] = system: healthy male volunteers; experiment: Cutaneous repeated (5 stimuli) electrical stimulation, temporal summation threshold; assay type: in vivo, human; settings: mean (SD)
Text: (§3) The stimulus burst used for single stimulus was repeated 5 times at 2 Hz, at constant intensity. The current intensity of the 5 stimuli was increased from 1 mA in steps of 0.5 mA until the subjects felt pain during the last 2–3 of the 5 stimuli (indicating temporal summation).
as §2

[5] = system: healthy male volunteers; experiment: Intramuscular single electrical stimulation pain threshold (tibialis anterior); assay type: in vivo, human; settings: for Pain threshold after single intramuscular electrical stimulation: mean (SD)
Experimental: as §1
(§4) A needle was placed in the tibialis anterior muscle, 14 cm distal from the caudal end of the patella and 20 mm in depth. The same single and repeated stimulation patterns and the same procedure described for cutaneous stimulation were used.

[6] = system: healthy male volunteers; experiment: Intramuscular repeated (5 stimuli) electrical stimulation pain threshold; assay type: in vivo, human
Text: as §3, §4

[7] = system: healthy male volunteers; experiment: Intramuscular repeated (20 stimuli) electrical stimulation, VAS; assay type: in vivo, human; design: AUC of VAS during 20 intramuscular electrical stimuli: unit not given beside the values; settings: for Maximal VAS during 20 intramuscular electrical stimuli: VAS 0-10; for Maximal VAS during 20 intramuscular electrical stimuli / AUC of VAS during 20 intramuscular electrical stimuli: mean (SD)
Experimental: The stimulus burst used for single stimulus was repeated for a train of 20 pulses at 2 Hz, at an intensity corresponding to the temporal summation threshold. During this 10 s stimulation, pain intensity was continuously rated by the subject with an electronic VAS, and the area under the curve (AUC) was computed. Additionally, the maximal VAS during stimulation was recorded.
as §4

[8] = system: healthy male volunteers; experiment: Cuff algometry (tourniquet cuff on the leg, VAS-time AUC); assay type: in vivo, human; design: AUC of VAS during cuff algometry: unit not given beside the values; settings: for AUC of VAS during cuff algometry: mean (SD)
Text: A tourniquet cuff was applied to the middle of the leg, at the level of the heads of the gastrocnemius and soleus muscle. The cuff was applied at the side contralateral to the side of electrical stimulation in order not to interfere with the positioning of the intramuscular electrodes. During stimulation, the volunteer rated the pain intensity on an electronic VAS scale. The cuff was inflated with compressed air until VAS 6 was reached. The maximum allowed inflating pressure was 200 kPa. The pressure was maintained for 10 min or until the subjects rated the pain as intolerable. The area under the curve VAS-time was computed. For those subjects who felt intolerable pain before 10 min, the time when the cuff was deflated was recorded and VAS 10 was extrapolated until 10 min. Additionally, the maximal VAS during inflation was recorded.

[9] = system: patients / volunteers; settings: patients treated for panic disorder; ref Micromedex 2009; cited from earlier work
[10] = baseline before medication, per drug session
[11] = single oral dose (clobazam 20 mg, clonazepam 1 mg, tolterodine 1 mg), 30 min after medication
[12] = single oral dose (clobazam 20 mg, clonazepam 1 mg, tolterodine 1 mg), 60 min after medication
[13] = single oral dose (clobazam 20 mg, clonazepam 1 mg, tolterodine 1 mg), 90 min after medication
[14] = single oral dose (clobazam 20 mg, clonazepam 1 mg, tolterodine 1 mg), 120 min after medication
[15] = single oral dose (clobazam 20 mg, clonazepam 1 mg, tolterodine 1 mg), after flumazenil 0.2 mg iv
[16] = peak value analysis, pairwise comparisons within each drug
[17] = subgroup analysis (n = 8), pairwise multiple comparisons

O=C1CN=C(c2ccccc2Cl)c2cc([N+](=O)[O-])ccc2N1 [Clonazepam]
Area of dynamic hyperalgesia ([1]; 30 min after medication): 22.4 (11.2) cm^2
Area of dynamic hyperalgesia ([1]; 60 min after medication): 19.0 (07.8) cm^2
Area of dynamic hyperalgesia ([1]; 90 min after medication): 21.7 (12.6) cm^2
Area of dynamic hyperalgesia ([1]; 120 min after medication): 16.8 (10.8) cm^2
Area of dynamic hyperalgesia ([1]; after flumazenil 0.2 mg iv): 19.2 (13.1) cm^2
VAS after von Frey hair 8 mN ([2]; 30 min after medication): 1.4 (1.5)
VAS after von Frey hair 16 mN ([2]; 30 min after medication): 1.6 (1.2)
VAS after von Frey hair 32 mN ([2]; 30 min after medication): 1.9 (1.5)
VAS after von Frey hair 64 mN ([2]; 30 min after medication): 2.8 (1.8)
VAS after von Frey hair 128 mN ([2]; 30 min after medication): 3.2 (4.2)
VAS after von Frey hair 256 mN ([2]; 30 min after medication): 4.2 (2.2)
VAS after von Frey hair 512 mN ([2]; 30 min after medication): 5.2 (2.1)
VAS after von Frey hair 8 mN ([2]; 60 min after medication): 1.2 (0.9)
VAS after von Frey hair 16 mN ([2]; 60 min after medication): 1.8 (1.9)
VAS after von Frey hair 32 mN ([2]; 60 min after medication): 2.0 (2.0)
VAS after von Frey hair 64 mN ([2]; 60 min after medication): 2.7 (2.0)
VAS after von Frey hair 128 mN ([2]; 60 min after medication): 3.5 (2.0)
VAS after von Frey hair 256 mN ([2]; 60 min after medication): 4.1 (1.8)
VAS after von Frey hair 512 mN ([2]; 60 min after medication): 5.1 (2.0)
VAS after von Frey hair 8 mN ([2]; 90 min after medication): 0.8 (0.8)
VAS after von Frey hair 16 mN ([2]; 90 min after medication): 1.3 (1.0)
VAS after von Frey hair 32 mN ([2]; 90 min after medication): 1.8 (1.4)
VAS after von Frey hair 64 mN ([2]; 90 min after medication): 2.1 (1.6)
VAS after von Frey hair 128 mN ([2]; 90 min after medication): 2.8 (1.7)
VAS after von Frey hair 256 mN ([2]; 90 min after medication): 4.4 (2.0)
VAS after von Frey hair 512 mN ([2]; 90 min after medication): 5.3 (2.1)
VAS after von Frey hair 8 mN ([2]; 120 min after medication): 1.0 (0.8)
VAS after von Frey hair 16 mN ([2]; 120 min after medication): 1.4 (1.2)
VAS after von Frey hair 32 mN ([2]; 120 min after medication): 2.1 (1.7)
VAS after von Frey hair 64 mN ([2]; 120 min after medication): 2.3 (1.5)
VAS after von Frey hair 128 mN ([2]; 120 min after medication): 2.9 (1.9)
VAS after von Frey hair 256 mN ([2]; 120 min after medication): 3.9 (2.2)
VAS after von Frey hair 512 mN ([2]; 120 min after medication): 5.0 (1.9)
VAS after von Frey hair 8 mN ([2]; after flumazenil 0.2 mg iv): 0.6 (0.6)
VAS after von Frey hair 16 mN ([2]; after flumazenil 0.2 mg iv): 1.4 (1.2)
VAS after von Frey hair 32 mN ([2]; after flumazenil 0.2 mg iv): 1.6 (1.4)
VAS after von Frey hair 64 mN ([2]; after flumazenil 0.2 mg iv): 2.2 (1.7)
VAS after von Frey hair 128 mN ([2]; after flumazenil 0.2 mg iv): 2.6 (1.9)
VAS after von Frey hair 256 mN ([2]; after flumazenil 0.2 mg iv): 3.8 (1.7)
VAS after von Frey hair 512 mN ([2]; after flumazenil 0.2 mg iv): 4.9 (1.7)
Pain threshold after single cutaneous electrical stimulation [3, 10]: 9.7 (3.3) mA
Pain threshold after single cutaneous electrical stimulation [3, 11]: 9.8 (3.5) mA
Pain threshold after single cutaneous electrical stimulation [3, 12]: 10.3 (3.4) mA
Pain threshold after single cutaneous electrical stimulation [3, 13]: 10.6 (3.6) mA
Pain threshold after single cutaneous electrical stimulation [3, 14]: 11.0 (3.6) mA
Pain threshold after single cutaneous electrical stimulation [3, 15]: 11.2 (3.9) mA
Pain threshold after 5 cutaneous electrical stimuli [4, 10]: 8.2 (3.1) mA
Pain threshold after 5 cutaneous electrical stimuli [4, 11]: 8.2 (3.0) mA
Pain threshold after 5 cutaneous electrical stimuli [4, 12]: 8.5 (2.9) mA
Pain threshold after 5 cutaneous electrical stimuli [4, 13]: 8.8 (3.2) mA
Pain threshold after 5 cutaneous electrical stimuli [4, 14]: 9.1 (3.1) mA
Pain threshold after 5 cutaneous electrical stimuli [4, 15]: 9.2 (3.3) mA
Pain threshold after single intramuscular electrical stimulation [5, 10]: 1.8 (1.2) mA
Pain threshold after single intramuscular electrical stimulation ([5]; baseline before medication, per drug session, listed as clonazepam): 1.84 mA
Change in pain threshold after single intramuscular electrical stimulation from baseline to after flumazenil ([5]; main analysis, pairwise comparisons within each drug): Significant increase in pain thresholds only for clonazepam
Change in pain detection threshold from baseline to peak value, intramuscular single electrical stimulation [5, 16]: significantly increase; also recorded: Significant increase in pain thresholds only for clonazepam in the peak value analysis
Pain detection threshold, intramuscular single electrical stimulation ([5]; peak value analysis, peak value before flumazenil, mean): 11.0
Pain threshold after single intramuscular electrical stimulation [5, 14]: 3.0 (2.5) mA
Pain threshold after single intramuscular electrical stimulation [5, 15]: 4.1 (3.7) mA
Pain threshold after single intramuscular electrical stimulation ([5]; single oral dose (clobazam 20 mg, clonazepam 1 mg, tolterodine 1 mg), after flumazenil 0.2 mg iv, listed as clonazepam): 4.05 mA
Pain threshold after 5 intramuscular electrical stimuli ([6]; baseline before medication, per drug session, mean (SD)): 1.6 (1.1) mA
Change in pain threshold after 5 intramuscular electrical stimuli between baseline and 120 minutes ([6]; main analysis, pairwise multiple comparison): statistically significant increase; also recorded: Significant increase in pain thresholds
Change in pain detection threshold after 5 intramuscular electrical stimuli from baseline to peak value [6, 16]: significant increase; also recorded: Consistent for an increase in pain thresholds after clobazam and clonazepam
Pain threshold after 5 intramuscular electrical stimuli ([6]; single oral dose (clobazam 20 mg, clonazepam 1 mg, tolterodine 1 mg), 120 min after medication, mean (SD)): 2.3 (1.6) mA
Pain threshold after 5 intramuscular electrical stimuli ([6]; single oral dose (clobazam 20 mg, clonazepam 1 mg, tolterodine 1 mg), after flumazenil 0.2 mg iv, mean (SD)): 2.9 (2.3) mA
Pain threshold after 5 intramuscular electrical stimuli ([6]; subgroup analysis (n = 8), 120 minutes, mean): 2.93 mA
Pain threshold after 5 intramuscular electrical stimuli ([6]; subgroup analysis (n = 8), after flumazenil administration, mean): 3.58 mA
Pain threshold after 5 intramuscular electrical stimuli ([6]; subgroup analysis (n = 8), baseline, mean): 1.69 mA
Maximal VAS during 20 intramuscular electrical stimuli [7, 10]: 4.3 (1.4)
Maximal VAS during 20 intramuscular electrical stimuli [7, 14]: 3.2 (2.4)
Maximal VAS during 20 intramuscular electrical stimuli [7, 15]: 2.8 (2.0)
AUC of VAS during 20 intramuscular electrical stimuli [7, 10]: 307 (138)
AUC of VAS during 20 intramuscular electrical stimuli [7, 14]: 236 (204)
AUC of VAS during 20 intramuscular electrical stimuli [7, 15]: 209 (178)
Maximal VAS during 20 intramuscular electrical stimuli, comparison among drugs ([7]; subgroup analysis (n = 8), pairwise comparisons vs tolterodine and clobazam): lower values; also recorded: Significantly lower maximal VAS with clonazepam, compared with tolterodine and clobazam in the subgroup analysis
AUC of VAS during cuff algometry [8, 10]: 3420 (689)
Cuff algometry, overview of peak value or subgroup analysis ([8]; overview table, compared to tolterodine): Time factor significant, favouring clobazam and clonazepam compared to tolterodine
AUC of VAS during cuff algometry [8, 14]: 3175 (644)
AUC of VAS during cuff algometry [8, 15]: 3225 (671)
AUC of VAS during cuff algometry compared with tolterodine at 120 min [8, 17]: significantly lower
Change of AUC of VAS during cuff algometry from baseline at 120 min and after flumazenil [8, 17]: significantly decreased
Dizziness, share of patients [9]: 8%
Somnolence, share of patients [9]: approximately 37%
